From paper PMC5554137, “Evaluation of novel factor Xa inhibitors from Oxya chinensis sinuosa with anti-platelet aggregation activity” (Scientific Reports, 2017)

Key:
FXa [1] = target: T1, FXa (Homo sapiens, UniProt P00742); assay: Chromogenic substrate assay, Ki determination, Factor Xa; type: biochemical; conditions: for Ki: substrate S-2765 (Table 3), mean ± SD (n = 5)
T1 construct: purchased Haematologic Technologies (Essex Junction, VT, USA)
Method: (§1) The inhibitor (I) constants (Ki) were determined for the inhibition of a series of human enzymes (FXa, thrombin, trypsin, plasmin, protein Ca, streptokinase, tPA, and urokinase) by each compound. Chromogenic substrate assays were performed using a Labsystems IEMS (Cergy Pontoise, France) microtiter plate reader. In each assay, the compound was tested at a minimum of seven concentrations in duplicate to obtain an inhibition curve. Assays were performed according to the following general procedure. In a 96-well microtiter plate, 25 μL of compound, inhibitor solution or buffer was added to 50 μL of substrate. A volume of 25 μL of enzyme solution was added just before the plate was placed in the microtiter plate reader for 1 h at 37 °C. The hydrolysis of the substrate yields p-nitroaniline, which was continuously monitored spectrophotometrically at 405 nm. Data were collected and the initial rate of substrate hydrolysis [Vo (mOD/minute)] was calculated. Following Michaelis-Menten kinetics, the affinity of the enzyme for the substrate, in the absence of the inhibitor (Km) and in the presence of an inhibitor (Kp), was determined to be the negative inverse x-intercept of Lineweaver–Burk plots. The dissociation constant for inhibition (Ki) was calculated using the following equation: Ki = (Km·[I])/(Kp − Km) as described by Williams and Morrison[40].

α-Thrombin = target: T2, α-Thrombin (Homo sapiens, UniProt P00734); assay: Chromogenic substrate assay, Ki determination, α-Thrombin; type: biochemical; conditions: for Ki: substrate S-2238
T2 construct: FXa converts prothrombin to thrombin; purchased Haematologic Technologies (Essex Junction, VT, USA)
Method: as §1

Trypsin = assay: Chromogenic substrate assay, Ki determination, Trypsin; type: biochemical, human; conditions: for Ki: substrate S-2222
Method: as §1

Plasmin = Plasmin (Homo sapiens, UniProt P00747); assay: Chromogenic substrate assay, Ki determination, Plasmin; type: biochemical; conditions: for Ki: substrate S-2251
Plasmin, sequence (P00747 581-810 limits assumed): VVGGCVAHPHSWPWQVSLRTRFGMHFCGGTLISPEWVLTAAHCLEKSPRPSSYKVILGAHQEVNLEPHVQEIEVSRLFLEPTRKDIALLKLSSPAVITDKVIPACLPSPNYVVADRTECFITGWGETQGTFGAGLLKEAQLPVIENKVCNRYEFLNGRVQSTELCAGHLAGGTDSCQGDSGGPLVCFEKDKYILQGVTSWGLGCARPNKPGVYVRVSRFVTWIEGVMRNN
Plasmin, sequence (P00747 97-580 limits assumed): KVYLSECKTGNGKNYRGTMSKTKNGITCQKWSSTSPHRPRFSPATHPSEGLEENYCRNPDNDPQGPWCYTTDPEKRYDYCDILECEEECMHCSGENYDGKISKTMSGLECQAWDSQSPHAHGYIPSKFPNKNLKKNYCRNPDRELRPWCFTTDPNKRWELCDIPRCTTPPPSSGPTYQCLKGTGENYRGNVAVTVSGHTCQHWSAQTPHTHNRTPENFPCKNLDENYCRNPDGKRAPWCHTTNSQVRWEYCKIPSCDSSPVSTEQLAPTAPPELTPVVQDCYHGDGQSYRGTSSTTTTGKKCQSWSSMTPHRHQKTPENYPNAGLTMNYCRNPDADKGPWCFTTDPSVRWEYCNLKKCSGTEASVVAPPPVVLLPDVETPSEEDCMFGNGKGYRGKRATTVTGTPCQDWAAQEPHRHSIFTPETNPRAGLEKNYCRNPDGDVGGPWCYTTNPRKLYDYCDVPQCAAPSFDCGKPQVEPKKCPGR
Method: as §1

Protein Ca = Protein Ca (Homo sapiens, UniProt P04070); assay: Chromogenic substrate assay, Ki determination, Protein Ca; type: biochemical; conditions: for Ki: substrate S-2366
Protein Ca, sequence (P04070 212-461 limits assumed): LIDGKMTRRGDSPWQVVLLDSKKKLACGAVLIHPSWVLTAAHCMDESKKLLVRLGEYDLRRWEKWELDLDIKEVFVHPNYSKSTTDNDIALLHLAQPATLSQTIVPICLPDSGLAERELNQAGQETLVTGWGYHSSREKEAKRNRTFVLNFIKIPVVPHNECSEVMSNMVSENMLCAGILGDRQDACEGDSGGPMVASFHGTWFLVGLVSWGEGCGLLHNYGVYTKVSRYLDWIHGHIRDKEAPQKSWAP
Protein Ca, sequence (P04070 43-197 limits assumed): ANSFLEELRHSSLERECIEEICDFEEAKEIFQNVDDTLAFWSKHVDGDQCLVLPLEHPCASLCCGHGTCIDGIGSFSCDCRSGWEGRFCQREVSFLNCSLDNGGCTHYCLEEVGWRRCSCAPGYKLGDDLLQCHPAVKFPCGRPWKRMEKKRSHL
Method: as §1

[2] = test system: Streptokinase (Homo sapiens); assay: Chromogenic substrate assay, Ki determination, Streptokinase; type: biochemical; conditions: for Ki: substrate S-2251
Streptokinase (Homo sapiens), sequence (P00747 581-810 limits assumed): as the sequence (P00747 581-810 limits assumed) above
Method: as §1

tPA = tPA (Homo sapiens, UniProt P00750); assay: Chromogenic substrate assay, Ki determination, tPA; type: biochemical; conditions: for Ki: substrate S-2228
tPA, sequence (P00750 36-562): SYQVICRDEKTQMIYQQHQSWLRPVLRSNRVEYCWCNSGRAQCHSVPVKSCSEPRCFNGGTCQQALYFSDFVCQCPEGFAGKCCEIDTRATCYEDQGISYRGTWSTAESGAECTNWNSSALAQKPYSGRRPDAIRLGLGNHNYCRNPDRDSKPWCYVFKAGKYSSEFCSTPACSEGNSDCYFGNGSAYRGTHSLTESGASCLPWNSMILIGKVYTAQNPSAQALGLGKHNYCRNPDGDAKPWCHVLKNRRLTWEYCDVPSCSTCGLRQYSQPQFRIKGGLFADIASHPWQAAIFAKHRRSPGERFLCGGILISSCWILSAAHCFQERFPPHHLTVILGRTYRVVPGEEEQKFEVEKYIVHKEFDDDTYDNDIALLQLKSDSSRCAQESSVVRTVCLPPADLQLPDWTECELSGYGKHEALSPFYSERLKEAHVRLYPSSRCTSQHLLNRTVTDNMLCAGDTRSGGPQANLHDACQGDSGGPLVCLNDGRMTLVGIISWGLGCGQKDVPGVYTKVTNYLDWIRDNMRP
Method: as §1

Urokinase = Urokinase (Homo sapiens, UniProt P00749); assay: Chromogenic substrate assay, Ki determination, Urokinase; type: biochemical; conditions: for Ki: substrate S-2444
Method: as §1

FXa [3] = target: T1, FXa; assay: Inhibition of amidolytic activity of FXa toward S-2222 (Michaelis-Menten, Lineweaver-Burk; with or without TFPI); type: biochemical; conditions: for type of inhibition of FXa (Lineweaver-Burk plots) / slope of inhibition activity plot: S-2222; for slope of inhibition activity plot: FXa; for Ki: substrate S-2222
Method: To elucidate the mechanisms responsible for inhibition of coagulation and platelet aggregation by compounds 1–4, inhibition of FXa activity was determined using chromogenic substrates. […] We observed a decrease in Vmax, with no effect on the Km of FXa toward S-2222 in the presence of compound 1. […] We also observed a slope of 0.401 for the control without compound 2, and slopes of 0.442 and 0.465 for compound 2 at concentrations of 2 and 5 µM, respectively. […] We observed a decrease in Vmax, with no effect on the Km of FXa toward S-2222 in the presence of compound 2. […] Inhibition activity plots were obtained for different concentrations of compound 3, showing a slope of 0.388 for the control without compound 3, and slopes of 0.408 and 0.464 for compound 3 at concentrations of 2 and 5 µM, respectively. […] We also observed a slope of 0.363 for the control without compound 4, and slopes of 0.376 and 0.398 for compound 4 at concentrations of 2 and 5 µM, respectively. […] We observed a decrease in Vmax, with no effect on the Km of FXa toward S-2222 in the presence of compound 4.
Figure 6 Effects of compounds 1–4 on inhibition and production of FXa. […] The plots represent means of three independent measurements. (E) Human umbilical vein endothelial cells (HUVECs) were pre-incubated with the indicated concentration of each compound for 10 min. HUVECs stimulated with tumor necrosis factor-α (TNF-α, 10 ng/mL for 6 h) were incubated with FVIIa (10 nM) and FX (175 nM) in the absence or presence of anti-TF IgG (25 µg/mL). FXa production was determined as described in the “ Supplementary Materials and Methods” section. D = 0.2% DMSO used as the vehicle control. (F) Inhibition of FXa by each compound (5 μM) with or without TFPI (2 nM) was monitored using a chromogenic assay. ^* p < 0.05 vs. TNF-α alone (E) or each compound (F) alone, analyzed via one-way ANOVA, followed by Tukey multiple comparison testing.
Each compound with or without TFPI was dissolved in 50 mM Tris-HCl buffer (pH 7.4) containing 7.5 mM EDTA and 150 mM NaCl. Following a 2-min incubation at 37 °C, FXa solution (150 μL, 1 U/mL) was added, followed by incubation at 37 °C for 1 min. S-2222 (an FXa substrate, 150 μL, 1.5 mM) solution was subsequently added, and the absorbance at 405 nm was monitored for 20 min using a spectrophotometer (TECAN, Männedorf, Switzerland). The absorbance-time curve and the slope of the curve (Vi) were used to represent the activity of the enzyme. Distilled water served as a control (the slope of curve V0). The inhibitory effect was calculated according to equation (1):1 Inhibitoryrate(%)=(V0−Vi)/V0×100 where V0 represents the slope of the vehicle and Vi represents the slope of the samples.

C57BL/6 mice = assay: Tail bleeding time; type: in vivo; conditions: tail-cutting assay, mean ± SD, n = 10
Method: Figure 4 Effects of compounds 1–4 on clotting and bleeding time. (A) One hour after administration (intravenous injection) of compound 1 (white box), 2 (light gray box), 3 (dark gray box), or 4 (black box), blood was collected from the mice and platelet-poor plasma (PPP) was obtained by centrifugation at 2,000 × g for 10 min at room temperature to test ex vivo activated partial thromboplastin time (aPTT). (B) Each group received a daily intravenous injection of the indicated compound for four consecutive days. Fifteen minutes after the last administration, blood samples were collected and in vivo aPTT was measured. (C) Fifteen minutes after administration of each compound or aspirin (4.5 or 9 mg/kg for 30 min) or the vehicle, tail tips (3 mm long) were cut from each mouse, and the remaining tail was immediately immersed into saline at 37 °C. Accumulated bleeding times (including periods of re-bleeding) were recorded. D = 0.2% DMSO used as the vehicle control. Data are presented as means ± SD of three independent experiments. *p < 0.05 vs. vehicle alone, analyzed by one-way ANOVA, followed by Tukey multiple comparison testing.
To assess bleeding risk incurred by compounds 1–4, we measured bleeding time in mice treated with each compound (up to 30 µM/mouse) by using a tail-cutting assay; the concentration used was three-fold higher than the doses used for the in vivo anti-thrombotic studies. Aspirin-treated mice (9 mg/kg) served as positive controls. […] However, the bleeding time in mice treated with compounds 1–4 was shorter than that observed in mice treated with aspirin ([…], mean ± SD, n = 10). The dose required to avoid thrombus formation and to protect against paralysis or death in mice was determined to be 5 µM per mouse (Fig. 7C).
Tail bleeding times were measured using the method described by Dejana et al.[37]. Briefly, C57BL/6 mice were fasted overnight prior to the experiments. […] after the i.v. administration of each compound, the tails of the mice were transected […] from their tips. Bleeding time was defined as the time elapsed until bleeding stopped. Bleeding times that exceeding 15 min were recorded as 15 min.

T1 sequence (P00742 235-488 limits assumed): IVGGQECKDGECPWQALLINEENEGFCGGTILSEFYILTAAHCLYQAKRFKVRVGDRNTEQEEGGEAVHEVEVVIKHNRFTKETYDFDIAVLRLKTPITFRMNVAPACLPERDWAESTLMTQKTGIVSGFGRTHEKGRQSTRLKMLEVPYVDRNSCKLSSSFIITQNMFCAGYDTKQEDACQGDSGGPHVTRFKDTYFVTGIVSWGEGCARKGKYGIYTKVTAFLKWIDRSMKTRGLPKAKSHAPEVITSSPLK
T1 sequence (P00742 41-179 limits assumed): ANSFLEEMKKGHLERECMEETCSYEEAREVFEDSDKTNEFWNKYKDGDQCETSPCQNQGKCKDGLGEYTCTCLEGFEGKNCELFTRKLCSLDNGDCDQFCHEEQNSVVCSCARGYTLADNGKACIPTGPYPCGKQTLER

Row | Structure (SMILES) | Ratio = Ki enzyme/Ki Factor Xa, Factor Xa (FXa [1]) | Ki (FXa [1]) [µM] | Ratio = Ki enzyme/Ki Factor Xa, α-Thrombin (α-Thrombin) | Ki (α-Thrombin) [µM] | Ratio = Ki enzyme/Ki Factor Xa, Trypsin (Trypsin) | Ki (Trypsin) [µM] | Ratio = Ki enzyme/Ki Factor Xa, Plasmin (Plasmin) | Ki (Plasmin) [µM] | Ratio = Ki enzyme/Ki Factor Xa, Protein Ca (Protein Ca) | Ki (Protein Ca) [µM] | Ratio = Ki enzyme/Ki Factor Xa, Streptokinase [2] | Ki [2] [µM] | Ratio = Ki enzyme/Ki Factor Xa, tPA (tPA) | Ki (tPA) [µM] | Ratio = Ki enzyme/Ki Factor Xa, Urokinase (Urokinase) | Ki (Urokinase) [µM] | Km of FXa toward S-2222 in the presence of compound (FXa [3]) | Vmax of FXa toward S-2222 in the presence of compound (FXa [3]) | type of inhibition of FXa (Lineweaver-Burk plots) (FXa [3]) | slope of inhibition activity plot (FXa [3]; compound at 2 µM) | other results
1 | CC(=O)NCCc1ccc2c(c1)O[C@H](NC(C)=O)[C@@H](c1ccc(O)c(O)c1)O2 [Compound 3, (2 R,3 S)-2-(3′,4′-dihydroxyphenyl)-3-acetylamino-6-(N-acetyl-2″-aminoethyl)-1,4-benzodioxane] | 1 | 4.45 ± 0.37 | >100 | > 500 | >100 | > 500 | >100 | > 500 | >100 | > 500 | >100 | > 500 | >100 | > 500 | >100 | > 500 | no effect | decrease | noncompetitive inhibition | 0.408 | slope of inhibition activity plot (FXa [3]; compound at 5 µM): 0.464; Ki (FXa [3]): 4.45 µM; bleeding time (C57BL/6 mice; mice treated with 10 µM): 12.1 ± 1.1 min; bleeding time (C57BL/6 mice; mice treated with 30 µM): 12.3 ± 1.3 min
2 | CC(=O)NCCc1ccc2c(c1)O[C@@H](NC(C)=O)[C@@H](c1ccc(O)c(O)c1)O2 [Compound 2, (2 R,3 R)-2-(3′,4′-dihydroxyphenyl)-3-acetylamino-6-(N-acetyl-2″-aminoethyl)-1,4-benzodioxane] | 1 | 4.13 ± 0.43 | >100 | > 500 | >100 | > 500 | >100 | > 500 | >100 | > 500 | >100 | > 500 | >100 | > 500 | >100 | > 500 | no effect | decrease | noncompetitive inhibition | 0.442 | slope of inhibition activity plot (FXa [3]; compound at 5 µM): 0.465; Ki (FXa [3]): 4.13 µM; bleeding time (C57BL/6 mice; mice treated with 10 µM): 12.5 ± 1.2 min; bleeding time (C57BL/6 mice; mice treated with 30 µM): 13.5 ± 1.1 min
3 | CC(=O)NCCc1ccc2c(c1)O[C@H](c1ccc(O)c(O)c1)[C@@H](NC(C)=O)O2 [Compound 4, (2 R,3 S)-2-(3′,4′-dihydroxyphenyl)-3-acetylamino-7-(N-acetyl-2″-aminoethyl)-1,4-benzodioxane] | 1 | 4.72 ± 0.31 | >100 | > 500 | >100 | > 500 | >100 | > 500 | >100 | > 500 | >100 | > 500 | >100 | > 500 | >100 | > 500 | no effect | decrease | noncompetitive inhibition | 0.376 | slope of inhibition activity plot (FXa [3]; compound at 5 µM): 0.398; Ki (FXa [3]): 4.72 µM
